Laboratory results from US20240279217A1, “Heterocyclic compounds for the treatment of tuberculosis” (TECNIMEDE - SOCIEDADE TÉCNICO-MEDICINAL, SA, priority 2021, published 2024).
pIC50: −log10 of the molar value. ≈ marks a conversion by molar mass, not a printed value. Where a name gives a salt, the structure may show the parent alone. Read-outs that look alike come from different tables or passages of the source.

How the values were obtained:
[1] = tested on: H37Rv M. tuberculosis (strain ATCC 25618); assay: Mycobacterium tuberculosis susceptibility assay REMA (resazurin microtiter assay); format: cell-based; details: for MIC: Mycobacterium tuberculosis, 144 h, read-out: REMA MIC; for REMA MIC: Table 2
HepG2 cell line = assay: In vitro cytotoxicity assay (MTS tetrazolium reduction); format: cell-based; details: HepG2, 48 h
Experimental: In an embodiment, in vitro cytotoxicity assay was carried out. In vitro cytotoxicity assay was performed in HepG2 cell line using a tetrazolium reduction assay for cell viability evaluation (MTS reduction as described by Cory A. et al (Cancer Commun. 1991, 3 (7), 207-212)). The assay was performed in 96-well plates for 48 h at 37° C. and 5% CO2 in incubation medium (low glucose DMEM with Glutamax, 10% FBS, 1% Pen/Strep and DMSO). Cells were exposed to 8 different compound concentrations in successive dilutions (usually, base 2), plus a positive control (a compound in a concentration known to decrease cell viability above 50%) and a negative control (incubation medium). Six replicate wells were assayed for each condition. Compound stock solutions were prepared in DMSO at 20 mM, whenever possible, filter sterilized, aliquoted and stored at −20° C. The maximum compound concentrations tested depend on its solubility in incubation medium, and on the maximum DMSO percentage allowable without loss of cell viability. At the end of the incubation period, tetrazolium reagent was added (CellTiter 96′ AQueous Solution from Promega); cells were incubated for another 3 hours in order to promote tetrazolium reduction to formazan by viable cells. The amount of soluble formazan produced was evaluated by 490 nm absorbance reading in a spectrophotometer plate reader. […] Whenever possible, IC50 was calculated as the concentration of compound that reduces cell viability by 50%.

[2] = MTB growth REMA, H37Rv, Middlebrook 7H9, 6 days at 37° C.
[3] = Table 1, MTB growth REMA, H37Rv, Middlebrook 7H9, 6 days at 37° C.
[4] = Homo sapiens, Table 1, cytotoxicity, MTS, read-out: IC50
[5] = Table 2, cytotoxicity, MTS, read-out: IC50

Structure (SMILES) | MIC [1] | pIC50 (HepG2 cell line; Homo sapiens) | REMA MIC [1, 2] | pIC50 (HepG2 cell line; Table 2, cytotoxicity, MTS) | MIC [1, 3] | pIC50 (HepG2 cell line; [4]) | pIC50 (HepG2 cell line; [5])
COc1cccc2ccc(N3CCC(c4nc(-c5ccc(C(F)(F)F)cc5)no4)CC3)nc12 [Compound 5, 5-(1-(8-methoxyquinolin-2-yl)piperidin-4-yl)-3-(4-(trifluoromethyl)phenyl)-1,2,4-oxadiazole hydrochloride] | 7.8 to 15.6 µM | 4.00 to 4.30 | – | – | – | – | –
COc1cc(OC)cc(-c2noc(C3CCN(c4ccc5cccc(OC)c5n4)CC3)n2)c1 [Compound 6, 3-(3,5-dimethoxyphenyl)-5-(1-(8-methoxyquinolin-2-yl)piperidin-4-yl)-1,2,4-oxadiazole] | 7.8 to 15.6 µM (≈ 3.48 to 6.97 µg/mL) | < 4.00 | +++ (7.8-15.6) | < 4.00 | – | – | –
COc1cccc2ccc(N3CCC(c4nc(-c5cccc(C(F)(F)F)c5)no4)CC3)nc12 [Compound 7, 5-(1-(8-methoxyquinolin-2-yl)piperidin-4-yl)-3-(3-(trifluoromethyl)phenyl)-1,2,4-oxadiazole] | 15.6 to 31.5 µM (≈ 7.09 to 14.3 µg/mL) | < 4.00 | – | – | – | – | –
COc1cccc2ccc(N3CCC(c4nc(-c5cccnc5)no4)CC3)nc12 [Compound 10, 5-(1-(8-methoxyquinolin-2-yl)piperidin-4-yl)-3-(pyridin-3-yl)-1,2,4-oxadiazole hydrochloride] | 15.6 to 31.5 µM | 4.00 to 4.30 | – | – | – | – | –
COc1cccc2ccc(N3CCC(c4nc(-c5ccc(C(F)(F)F)nc5)no4)CC3)nc12 [Compound 11, 5-(1-(8-methoxyquinolin-2-yl)piperidin-4-yl)-3-(6-(trifluoromethyl)pyridin-3-yl)-1,2,4-oxadiazole] | < 7.8 µM | 4.30 to 4.70 | – | – | – | – | –
Clc1cccc2ccc(N3CCC(c4nc(-c5cccnc5)no4)CC3)nc12 [Compound 18, 5-(1-(8-chloroquinolin-2-yl)piperidin-4-yl)-3-(pyridin-3-yl)-1,2,4-oxadiazole hydrochloride] | 15.6 to 31.5 µM | 4.00 to 4.30 | – | – | – | – | –
COc1ccc2nc(N3CCC(c4nc(-c5cccnc5)no4)CC3)ccc2c1 [Compound 21, 5-(1-(6-methoxyquinolin-2-yl)piperidin-4-yl)-3-(pyridin-3-yl)-1,2,4-oxadiazole] | – | – | ++++ (<7.8) | – | < 7.8 µM | < 4.00 | < 4.00
COc1cccc2ccc(N3CCC(c4nc(-c5ccc(O)cc5)no4)CC3)nc12 [Compound 24, 4-(5-(1-(8-methoxyquinolin-2-yl)piperidin-4-yl)-1,2,4-oxadiazol-3-yl)phenol] | – | – | +++ (7.8-15.6) | – | 7.8 to 15.6 µM (≈ 3.14 to 6.28 µg/mL) | < 4.00 | < 4.00
c1cncc(-c2noc(C3CCN(c4ccc5cc(-c6ccncc6)ccc5n4)CC3)n2)c1 [Compound 27, 3-(pyridin-3-yl)-5-(1-(6-(pyridin-4-yl)quinolin-2-yl)piperidin-4-yl)-1,2,4-oxadiazole] | – | – | ++++ (<7.8) | – | < 7.8 µM | < 4.00 | < 4.00
COc1cccc2ccc(N3CCC(c4nc(-c5ccc(Cl)nc5)no4)CC3)nc12 [Compound 31, 3-(6-chloropyridin-3-yl)-5-(1-(8-methoxyquinolin-2-yl)piperidin-4-yl)-1,2,4-oxadiazole hydrochloride] | 15.6 to 31.5 µM | 4.30 to 4.70 | – | – | – | – | –
COc1cccc2ccc(N3CCC(c4nc(-c5ccc(N6CCCCC6)nc5)no4)CC3)nc12 [Compound 33, 5-(1-(8-methoxyquinolin-2-yl)piperidin-4-yl)-3-(6-(piperidin-1-yl)pyridin-3-yl)-1,2,4-oxadiazole] | < 7.8 µM | < 4.00 | ++++ (<7.8) | < 4.00 | – | – | –
COc1cccc2ccc(N3CCC(c4nc(-c5ccc(N6CCNCC6)nc5)no4)CC3)nc12 [Compound 34, 5-(1-(8-methoxyquinolin-2-yl)piperidin-4-yl)-3-(6-(piperazin-1-yl)pyridin-3-yl)-1,2,4-oxadiazole] | – | – | – | – | 15.6 to 31.5 µM (≈ 7.36 to 14.9 µg/mL) | > 4.70 | –
COc1cccc2ccc(N3CCC(c4nc(-c5ccc(NCCO)nc5)no4)CC3)nc12 [Compound 35, 2-((5-(5-(1-(8-methoxyquinolin-2-yl)piperidin-4-yl)-1,2,4-oxadiazol-3-yl)pyridin-2-yl)amino)ethan-1-ol hydrochloride] | 15.6 to 31.5 µM | < 4.00 | – | – | – | – | –
COc1cccc2ccc(N3CCC(c4nc(-c5ccc(N6CCCC6)nc5)no4)CC3)nc12 [Compound 50, 5-(1-(8-methoxyquinolin-2-yl)piperidin-4-yl)-3-(6-(pyrrolidin-1-yl)pyridin-3-yl)-1,2,4-oxadiazole hydrochloride] | 7.8 to 15.6 µM | < 4.00 | +++ (7.8-15.6) | < 4.00 | – | – | –
